Results from patent US20260256756A1, “USE OF PIPERIDINE ALKENE COMPOUND IN PREPARATION OF DRUG FOR TREATING CANCER” (JIANGSU HANSOH PHARMACEUTICAL GROUP CO., LTD., priority 2023, published 2026).

Experiments:
PSN-1 cells = assay: In vitro proliferation inhibition (CellTiter-Glo), PSN-1; format: cell-based; settings: Homo sapiens, PSN1; PSN-1, pancreatic cancer, HRD-positive (low expression of MRE11A/CHEK2 protein); 6-10 days culture
Text: […]
Experimental data processing method: The luminescence signal value was used to calculate the inhibition rate. […]

[1] = system: human breast cancer cell line MX-1 xenograft tumor; assay: Subcutaneous xenograft tumor model of human breast cancer cell line MX-1; format: in vivo, BALB/c nude mice
Text: • 1. Experimental objective: To evaluate the in vivo efficacy of the compound in a subcutaneous xenograft tumor model of human breast cancer cell line MX-1 in nude mice. • 2. Reagent • RPMI-1640 medium (22400-089, Gibco), fetal bovine serum (FBS) (10099-141C, Gibco) • Phosphate buffer (PBS, 10010-023, Gibco), HPMC (D180HB4005, Shanghai Colorcon Coating Technology Ltd.) • 0.25% Trypsin-EDTA (25200-056, Gibco), Pen Strep (P/S) (15140-122, Gibco) • 3. Experimental operations and data processing • 3.1 Animals: BALB/c nude mice, 8-12 weeks old, female, purchased from the Laboratory Animal Business Department of Shanghai Institute of Planned Parenthood Research. • 3.2 Cell culture and cell suspension preparation • a. A vial of MX-1 cells was taken from a cell bank, the cells were thawed with RPMI-1640 medium (RPMI-1640+10% FBS), and the thawed cells were placed in a cell culture flask (with the cell type, date, the name of the culture operator, etc., being marked on the wall of the flask), which were placed in a CO2 incubator for culturing (wherein the temperature of the incubator was 37° C., and the CO2 concentration was 5%). • b. The cells were passaged every three days, and after passage, the cells were placed in the CO2 incubator to continue the culture. This process was repeated until the cell number met the requirements for in vivo efficacy. • c. The cultured cells were collected, counted using a full-automatic cell counter, and resuspended with PBS on the basis of the counting results to prepare a cell suspension (at a density of 3×10^7/mL), which was then placed in an ice box for later use. • 3.3 Cell inoculation • a. Before inoculation, the nude mice were marked with disposable universal ear tags for mice and rats. • b. At the time of inoculation, the cell suspension was mixed uniformly, 0.1-1 mL of the cell suspension was aspirated using a 1 mL syringe with air bubbles expelled, and the syringe was then placed on an ice bag for later use. • c. The nude mouse was secured with the left hand, the right dorsal area near the right shoulder (inoculation site) of the nude mouse was disinfected with a 75% alcohol cotton ball, and inoculation was initiated after 30 seconds. • d. The experimental nude mice were inoculated sequentially (0.1 mL of cell suspension per mouse). • 3.4 Tumor measurement, grouping and administration in tumor-bearing mice • a. Tumor was measured on days 10-18 after inoculation depending on the tumor growth, and the tumor size was calculated.
tumor volume (mm^3)=length (mm)×width (mm)×width (mm)/2 Tumor volume calculation: • b. According to the body weight of tumor-bearing mice and the size of the tumor, the mice were grouped by random grouping. • c. According to the grouping results, the test drug was started to be administered (administration method: oral administration; administration volume: 10 mL/kg; administration frequency: once/day; administration cycle: 21 days; vehicle: 0.5% HPMC). • d. Tumor measurement and weighing were performed twice a week after starting administration of test drugs. • e. The animals were euthanized at the end of the experiment. • f. Data processing was performed using software such as GraphPad Prism. The tumor inhibitory efficacy of the compound was evaluated by TGI (%) and ΔT/ΔC (%). ΔT/ΔC (%)=(T−T0)/(C−C0)×100, where T and C are the tumor volumes of the treatment group and the vehicle control group at the end of the experiment, respectively, and T0 and C0 are the tumor volumes of the treatment group and the vehicle control group at the beginning of the experiment, respectively. Tumor growth inhibition (TGI) (%)=100−ΔT/ΔC (%). Tumor growth inhibition (TGI) (%)=100−(T−T0)/T0×100 when tumor regression occurs • 4. Experimental conclusion

[2] = MX-1, 3 mg/kg oral once/day, Day 21
[3] = MX-1, 100 mg/kg oral once/day, Day 21

Row | Compound | IC50 (PSN-1 cells) | Tumor volume (Mean ± SEM) ([1]; MX-1, 3 mg/kg oral once/day, Day 0) | T/C [1, 2] | TGI [1, 2] | Tumor volume (Mean ± SEM) [1, 2] | Tumor volume (Mean ± SEM) ([1]; MX-1, 100 mg/kg oral once/day, Day 0) | T/C [1, 3] | TGI [1, 3] | Tumor volume (Mean ± SEM) [1, 3]
1 | CCc1cc2ncc(CN3CCN(c4ccc(C(=O)NC)nc4)CC3)cc2[nH]c1=O [AZD5305] | 2.1 ± 0.5 nM | 122 ± 17 mm^3 | 34.13% | 70.43% | 642 ± 132 mm^3 | – | – | – | –
2 | O=C(c1cc(Cc2n[nH]c(=O)c3ccccc23)ccc1F)N1CCN(C(=O)C2CC2)CC1 [Olaparib] | 65 ± 19 nM | – | – | – | – | 122 ± 14 mm^3 | 88.08% | 12.73% | 1656 ± 289 mm^3
